Laboratory results reported in US20250002527A1, “STEROID COMPOUND AND CONJUGATE THEREOF” (DUALITY BIOLOGICS (SUZHOU) CO., LTD., priority 2021, published 2025).
Values joined by “and” are separate entries in the source; they are usually repeats but may differ in a detail not shown here. Equal values may be shown once.

How the values were obtained:
Type in all cases: cell-based
GR = molecular target: T1, GR (Homo sapiens, UniProt P04150); assay: GR luciferase reporter gene elution experiment; set-up: concentration or dose not given beside the values; conditions: then 24 hours
T1 construct: expressed in transfected cells; host or cells: HEK293
T1 sequence (P04150 1-777): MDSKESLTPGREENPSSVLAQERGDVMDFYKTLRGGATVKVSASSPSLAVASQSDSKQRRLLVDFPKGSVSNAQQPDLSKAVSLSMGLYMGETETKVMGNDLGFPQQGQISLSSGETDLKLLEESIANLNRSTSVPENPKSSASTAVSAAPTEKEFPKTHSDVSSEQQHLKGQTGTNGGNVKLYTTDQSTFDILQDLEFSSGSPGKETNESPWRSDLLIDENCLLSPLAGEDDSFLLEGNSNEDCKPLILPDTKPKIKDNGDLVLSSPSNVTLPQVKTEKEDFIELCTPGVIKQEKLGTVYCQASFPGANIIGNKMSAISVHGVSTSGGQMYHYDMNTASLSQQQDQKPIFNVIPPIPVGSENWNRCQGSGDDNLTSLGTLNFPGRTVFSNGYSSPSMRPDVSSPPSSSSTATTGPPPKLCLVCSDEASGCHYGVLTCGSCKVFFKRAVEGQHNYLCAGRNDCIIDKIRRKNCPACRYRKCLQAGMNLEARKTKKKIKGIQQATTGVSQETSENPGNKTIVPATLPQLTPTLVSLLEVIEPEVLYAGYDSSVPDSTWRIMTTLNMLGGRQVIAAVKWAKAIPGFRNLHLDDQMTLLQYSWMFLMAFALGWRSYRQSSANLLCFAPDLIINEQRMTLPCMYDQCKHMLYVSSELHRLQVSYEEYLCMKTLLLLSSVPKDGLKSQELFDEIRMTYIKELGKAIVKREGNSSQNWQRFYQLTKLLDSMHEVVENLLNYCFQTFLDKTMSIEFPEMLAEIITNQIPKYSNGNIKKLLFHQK
Protocol: The compounds of the present application were evaluated for their ability to continue activation upon binding to GR.
HEK293 cells were cultured in DMEM+10% FBS medium in a carbon dioxide incubator humidified at 37° C. at 5% carbon dioxide.
• 1) HEK293 cells were trypsinized, and the HEK293 cell resuspension was adjusted to 200,000 cell/mL in medium (96 well plate: 100 μL/well). • 2) Transfection reagent mixtures were prepared according to the table below, mixed well and left at room temperature for 20 minutes.
• 3) The prepared transfection mixtures were added to 10 mL of the cell density-adjusted resuspension, mixed well by turning the mixtures upside down, and seeded into a 96-well plate at a volume of 100 μL/well. • 4) The 96-well plate was incubated in a humidified incubator at 37° C. and 5% carbon dioxide for 24 hours.
The test plate was detected using the Dual-Glo Luciferase Assay System kit from Promega, and the fluorescence signal of Firefly Luciferase and the fluorescence signal of Renilla Luciferase were read using Enspire, respectively.
• 1) The final measurement value was a normalized value “F/R” obtained by dividing the Firefly Luciferase fluorescent signal by the Renilla Luciferase fluorescent signal. • 2) The data were copied and pasted into Excel, and the activation rate was obtained through an equation.
[formula] • 3) The data were imported into MS Excel and subjected to curve fitting by using XLFit excel add-in version 5.4.0.8 to obtain an EC50 value.
Y is the agonism and X is the concentration of the compound.

human PBMC cells [1] = assay: TNF-α secretion from PBMC under R848 stimulation (compounds); conditions: R848 5 μM, 24 hours, mean ± standard deviation
Protocol: (§1) The compounds of the present application were tested for their inhibitory effect on the production of peripheral blood monocytes. The peripheral blood monocytes were treated in vitro with the ligand-drug conjugate at different concentrations, and IFNα and TNFα generated by the peripheral blood monocytes were quantitatively detected after a certain time. The compounds of the present invention were evaluated for in-vitro activity.
(§2) The cryopreserved human PBMC cells were resuspended in a complete medium and counted, and the cell suspension was adjusted to 2.5×10*6 cells/mL with the culture medium. After the suspension was centrifuged to collect the cells the next day, the cells were resuspended using fresh culture medium. Test compounds were diluted to 4-fold final concentration in cell culture medium, 50 μL of the compounds were added into a 96-well cell plate, and 100 μL of diluted cells ([…]) were added into each well of the 96-well plate containing the compounds, followed by addition of 50 μL R848 to a final concentration of 5 μM. The cell plate was incubated at 37° C. with 5% CO2 for 24 hours. The supernatant was collected, and the TNF-α and IFN-α concentration levels in the supernatant were detected using an ELISA kit.
TNF-α concentration assay was performed using Dakewe TNF-α ELISA kit (Cat #1117202), 100 μL of the serially-diluted cytokine standard was added into each well, 100 μL of the above supernatant diluted 10-fold was added into each well, and 100 μL of 1× dilution buffer R was added into each blank well. 50 μL of biotinylated antibody working solution was added into each well. After mixing well, the plate was covered with the plate-sealing membrane and incubated at room temperature for 3 hours. The plate was washed for 3 times: the liquid in each well was discarded, and 300 μL of 1× washing buffer working solution was added into each well; after 1 minute of residence, the liquid in the wells was discarded. The procedure was repeated for 3 times. 100 μL of Streptavidin-HRP working solution was added into each well. The plate was covered with the plate-sealing membrane and incubated at room temperature for 20 minutes. The plate was washed for 3 times, 100 μL of TMB liquid was added into each well, and the plate was incubated for 25 minutes at room temperature (18-25° C.) in the dark. The reaction was stopped by adding 100 μL stop solution rapidly to each well. The reading at a wavelength of 450 nm was detected by an M2e instrument within 10 minutes after termination.
(§3) The contents of TNF-α and IFN-α were calculated from the OD450 values.

human PBMC cells [2] = assay: IFN-α secretion from PBMC under R848 stimulation (compounds); conditions: R848 5 μM, 24 hours, mean ± standard deviation
Protocol: as §1, §2
50 μL of biotinylated antibody working solution was added into each well. After mixing well, the plate was covered with the plate-sealing membrane and incubated at room temperature for 3 hours. […] The procedure was repeated for 3 times. 100 μL of Streptavidin-HRP working solution was added into each well. The plate was covered with the plate-sealing membrane and incubated at room temperature for 20 minutes. The plate was washed for 3 times, 100 μL of TMB liquid was added into each well, and the plate was incubated for 25 minutes at room temperature (18-25° C.) in the dark. The reaction was stopped by adding 100 μL stop solution rapidly to each well. The reading at a wavelength of 450 nm was detected by an M2e instrument within 10 minutes after termination.
as §3

C[C@]12C=CC(=O)C=C1CC[C@@H]1[C@@H]2[C@@H](O)C[C@@]2(C)[C@H]1C[C@H]1O[C@@H](c3ccc(Cc4ccc(CO)cc4)cc3)O[C@]12C(=O)CO [Compound 4]
Wash off time (Rate of activation %) 15 min (GR; wash off after 15 min): 127.6% and 129.6% | Wash off time (Rate of activation %) 30 min (GR; wash off after 30 min): 127.0% and 128.5% | Wash off time (Rate of activation %) 1 h (GR; wash off after 1 h): 164.6% and 106.6% | Wash off time (Rate of activation %) 2 h (GR; wash off after 2 h): 131.3% and 124.8% | Wash off time (Rate of activation %) 4 h (GR; wash off after 4 h): 139.9% and 125.3% | TNF-α secretion (pg/mL) from PBMC under R848 stimulation (human PBMC cells [1]; compound 4 nM): 443.6 pg/mL | TNF-α secretion (pg/mL) from PBMC under R848 stimulation (human PBMC cells [1]; compound 20 nM): 320 pg/mL | TNF-α secretion (pg/mL) from PBMC under R848 stimulation (human PBMC cells [1]; compound 100 nM): 356.1 pg/mL | IFN-α secretion (pg/mL) from PBMC under R848 stimulation (human PBMC cells [2]; compound 4 nM): 13.2 ± 13.2 pg/mL | IFN-α secretion (pg/mL) from PBMC under R848 stimulation (human PBMC cells [2]; compound 20 nM): 27.9 ± 27.9 pg/mL | IFN-α secretion (pg/mL) from PBMC under R848 stimulation (human PBMC cells [2]; compound 100 nM): 0 ± 0 pg/mL
